US10358437B2, “Therapeutic compounds and uses thereof” (GENENTECH, INC., priority 2014, dated 2019)
Where a name gives a salt, the structure may show the parent alone.

Target: T1, PCAF bromodomain (Homo sapiens, UniProt Q92831)
T1 construct: Flag; made in house
T1 sequence (Q92831 719-832): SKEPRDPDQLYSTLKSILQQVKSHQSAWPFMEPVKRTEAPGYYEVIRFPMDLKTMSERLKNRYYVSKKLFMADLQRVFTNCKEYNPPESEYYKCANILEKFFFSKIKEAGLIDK
Test: PCAF AlphaLisa binding assay
Details: His/Flag tagged PCAF719-832 bromodomain 225 nM, biotinylated small molecule ligand 6 nM
Description: IC50 Measurements for Inhibitors Using PCAF AlphaLisa Binding Assay
His/Flag epitope tagged PCAF719-832 bromodomain was cloned, expressed and purified to homogeneity in-house. PCAF bromodomain binding and inhibition of the compounds disclosed herein was assessed by monitoring the engagement of biotinylated small molecule ligand (known to bind to the PCAF bromodomain) with the target using the AlphaLisa technology (Perkin-Elmer). Specifically, in a 384 well ProxiPlate PCAF bromodomain (225 nM final) was combined with the biotinylated small molecule ligand (6 nM final) in 50 mM HEPES (pH 7.5), 75 mM NaCl, 1 mM TCEP, 0.01% (w/v) BSA, and 0.008% (w/v) Brij-35 either in the presence of DMSO (final 0.2% DMSO) or compound dilution series in DMSO. After 15 minute incubation at room temperature AlphaLisa streptavidin acceptor beads and AlphaLisa anti-histidine donor beads were added to a final concentration of 12.5 μg/mL each.
PCAF IC50 values for the Examples 1-22 were determined using the general procedure described above.

Structure (SMILES)	IC50 [nM]
CN(C)C1CCCN(c2nn(C)c(=O)n(C)c2=O)C1 (racemic) [Example 12, 6-(3-(dimethylamino)piperidin-1-yl)-2,4-dimethyl-1,2,4-triazine-3,5(2H,4H)-dione]	> 20000
COc1ccc(C(CNc2nn(C)c(=O)n(C)c2=O)N(C)C)cc1 (racemic) [Example 6, 6-((2-(dimethylamino)-2-(4-methoxyphenyl)ethyl)amino)-2,4-dimethyl-1,2,4-triazine-3,5(2H,4H)-dione]	150
CN(C)[C@H]1CCCC[C@H]1Nc1nn(C)c(=O)n(C)c1=O (racemic) [Example 19, 6-((2-(dimethylamino)cyclohexyl)amino)-2,4-dimethyl-1,2,4-triazine-3,5(2H,4H)-dione hydrochloride]	1100
CCn1nc(NCC(c2ccccc2)N(C)C)c(=O)n(CC)c1=O (racemic) [Example 22, 6-((2-(dimethylamino)-2-phenylethyl)amino)-2,4-diethyl-1,2,4-triazine-3,5(2H,4H)-dione]	12000
CN1Cc2ccccc2CC1CNc1nn(C)c(=O)n(C)c1=O (racemic) [Example 8, 2,4-dimethyl-6-[(2-methyl-3,4-dihydro-1H-isoquinolin-3-yl)methylamino]-1,2,4-triazine-3,5-dione]	380
CN1c2ccccc2CCC1CNc1nn(C)c(=O)n(C)c1=O (racemic) [Example 2, 2,4-dimethyl-6-(((1-methyl-1,2,3,4-tetrahydroquinolin-2-yl)methyl)amino)-1,2,4-triazine-3,5(2H,4H)-dione]	> 20000
CN1CCCC1CNc1nn(C)c(=O)n(C)c1=O (racemic) [Example 3, 2,4-dimethyl-6-(((1-methylpyrrolidin-2-yl)methyl)amino)-1,2,4-triazine-3,5(2H,4H)-dione]	2500
CN(C)C(C)(CNc1nn(C)c(=O)n(C)c1=O)c1ccccc1 (racemic) [Example 15, 6-((2-(dimethylamino)-2-phenylpropyl)amino)-2,4-dimethyl-1,2,4-triazine-3,5(2H,4H)-dione]	480
Cn1nc(N2CCNC(c3ccccc3)C2)c(=O)n(C)c1=O (racemic) [Example 13, 2,4-dimethyl-6-(3-phenylpiperazin-1-yl)-1,2,4-triazine-3,5(2H,4H)-dione]	> 20000
CN(C)C(CNc1nn(C)c(=O)n(C)c1=O)c1ccc(F)cc1 (racemic) [Example 4, 6-((2-(dimethylamino)-2-(4-fluorophenyl)ethyl)amino)-2,4-dimethyl-1,2,4-triazine-3,5(2H,4H)-dione]	280
Cn1nc(NCCNc2ccccc2)c(=O)n(C)c1=O [Example 5, 2,4-dimethyl-6-((2-(phenylamino)ethyl)amino)-1,2,4-triazine-3,5(2H,4H)-dione]	65000
Cn1nc(NCC(c2ccccc2)N2CCCC2)c(=O)n(C)c1=O (racemic) [Example 16, 2,4-dimethyl-6-((2-phenyl-2-(pyrrolidin-1-yl)ethyl)amino)-1,2,4-triazine-3,5(2H,4H)-dione]	8100
C[C@H](Nc1nn(C)c(=O)n(C)c1=O)[C@H](c1ccccc1)N(C)C (single isomer, unassigned) [Example 17]	120
CN(C)C(CNc1nn(C)c(=O)n(C)c1=O)c1cccc(Cl)c1 (racemic) [Example 10, 6-((2-(3-chlorophenyl)-2-(dimethylamino)ethyl)amino)-2,4-dimethyl-1,2,4-triazine-3,5(2H,4H)-dione]	430
C[C@H](Nc1nn(C)c(=O)n(C)c1=O)[C@H](c1ccc(S(=O)(=O)c2ccccc2)cc1)N(C)C (single isomer, unassigned) [Example 18]	70
CN(CCNc1nn(C)c(=O)n(C)c1=O)Cc1ccccc1 [Example 9, 6-((2-(benzyl(methyl)amino)ethyl)amino)-2,4-dimethyl-1,2,4-triazine-3,5(2H,4H)-dione]	7500
CN(CCNc1nn(C)c(=O)n(C)c1=O)CC(F)(F)F [Example 1, 2,4-dimethyl-6-((2-(methyl(2,2,2-trifluoroethyl)amino)ethyl)amino)-1,2,4-triazine-3,5(2H,4H)-dione]	> 20000
CN(C)CCN(C)c1nn(C)c(=O)n(C)c1=O [Example 7, 6-((2-(dimethylamino)ethyl)(methyl)amino)-2,4-dimethyl-1,2,4-triazine-3,5(2H,4H)-dione (trifluoroacetic acid salt)]	37000
CN(C)C(CNc1nn(C)c(=O)n(C)c1=O)Cc1ccccc1 (racemic) [Example 11, 6-((2-(dimethylamino)-3-phenylpropyl)amino)-2,4-dimethyl-1,2,4-triazine-3,5(2H,4H)-dione]	1400
CN(C)[C@@H]1CCCC[C@H]1Nc1nn(C)c(=O)n(C)c1=O (racemic) [Example 20, 6-(((1R,2R)-2-(dimethylamino)cyclohexyl)amino)-2,4-dimethyl-1,2,4-triazine-3,5(2H,4H)-dione]	230
CN1CCc2ccccc2C1CNc1nn(C)c(=O)n(C)c1=O (racemic) [Example 21, 2,4-dimethyl-6-(((2-methyl-1,2,3,4-tetrahydroisoquinolin-1-yl)methyl)amino)-1,2,4-triazine-3,5(2H,4H)-dione]	1200
CN(C)C(CNc1nn(C)c(=O)n(C)c1=O)c1ccc(C(F)(F)F)cc1 (racemic) [Example 14, 6-((2-(dimethylamino)-2-(4-(trifluoromethyl)phenyl)ethyl)amino)-2,4-dimethyl-1,2,4-triazine-3,5(2H,4H)-dione]	250
